Experimental data published in the CheMixHub viscosity set.
± gives the uncertainty stated by the source.

Assay: xn = mol fraction of the nth substance listed

SMILES: CCCOC(C)=O + c1ccccc1
- viscosity (298.15 K, 101.3 kPa, x2 = 0.246): 0.537 ± 0.014 mPa·s
- viscosity (298.15 K, 101.3 kPa, x2 = 0.4714): 0.537 ± 0.014 mPa·s
- viscosity (298.15 K, 101.3 kPa, x2 = 0.6809): 0.551 ± 0.015 mPa·s
- viscosity (298.15 K, 101.3 kPa, x2 = 0.8404): 0.563 ± 0.015 mPa·s
- viscosity (303.15 K, 101.33 kPa, x2 = 0.0633): 0.514 ± 0.005 mPa·s
- viscosity (303.15 K, 101.33 kPa, x2 = 0.1259): 0.515 ± 0.005 mPa·s
- viscosity (303.15 K, 101.33 kPa, x2 = 0.1865): 0.513 ± 0.005 mPa·s
- viscosity (303.15 K, 101.33 kPa, x2 = 0.3006): 0.512 ± 0.005 mPa·s
- viscosity (303.15 K, 101.33 kPa, x2 = 0.4062): 0.513 ± 0.005 mPa·s
- viscosity (303.15 K, 101.33 kPa, x2 = 0.5133): 0.514 ± 0.005 mPa·s
- viscosity (303.15 K, 101.33 kPa, x2 = 0.6141): 0.517 ± 0.005 mPa·s
- viscosity (303.15 K, 101.33 kPa, x2 = 0.7078): 0.524 ± 0.005 mPa·s
- viscosity (303.15 K, 101.33 kPa, x2 = 0.7972): 0.529 ± 0.005 mPa·s
- viscosity (303.15 K, 101.33 kPa, x2 = 0.8812): 0.539 ± 0.005 mPa·s
- viscosity (303.15 K, 101.33 kPa, x2 = 0.9631): 0.551 ± 0.005 mPa·s
- viscosity (308.15 K, 101.3 kPa, x2 = 0.246): 0.477 ± 0.013 mPa·s
- viscosity (308.15 K, 101.3 kPa, x2 = 0.4714): 0.48 ± 0.013 mPa·s
- viscosity (308.15 K, 101.3 kPa, x2 = 0.8404): 0.49 ± 0.013 mPa·s
- viscosity (313.15 K, 101.33 kPa, x2 = 0.1951): 0.448 ± 0.005 mPa·s
- viscosity (313.15 K, 101.33 kPa, x2 = 0.4024): 0.449 ± 0.005 mPa·s
- viscosity (313.15 K, 101.33 kPa, x2 = 0.5082): 0.453 ± 0.005 mPa·s
- viscosity (313.15 K, 101.33 kPa, x2 = 0.6029): 0.455 ± 0.005 mPa·s
- viscosity (313.15 K, 101.33 kPa, x2 = 0.8029): 0.466 ± 0.005 mPa·s

SMILES: CCCC(C)=O + c1ccccc1
- viscosity (303.15 K, 101.32 kPa, x2 = 0.1304): 0.469 ± 0.004 mPa·s
- viscosity (303.15 K, 101.32 kPa, x2 = 0.2771): 0.475 ± 0.004 mPa·s
- viscosity (303.15 K, 101.32 kPa, x2 = 0.3294): 0.484 ± 0.004 mPa·s
- viscosity (303.15 K, 101.32 kPa, x2 = 0.4869): 0.499 ± 0.004 mPa·s
- viscosity (303.15 K, 101.32 kPa, x2 = 0.6257): 0.515 ± 0.004 mPa·s
- viscosity (303.15 K, 101.32 kPa, x2 = 0.6946): 0.522 ± 0.004 mPa·s
- viscosity (303.15 K, 101.32 kPa, x2 = 0.7707): 0.532 ± 0.004 mPa·s
- viscosity (303.15 K, 101.32 kPa, x2 = 0.9042): 0.553 ± 0.004 mPa·s

SMILES: ClC(Cl)(Cl)Cl + COC(=O)OC
- viscosity (298.15 K, 101.33 kPa, x2 = 0.0994): 0.77 ± 0.02 mPa·s
- viscosity (298.15 K, 101.33 kPa, x2 = 0.201): 0.724 ± 0.019 mPa·s
- viscosity (298.15 K, 101.33 kPa, x2 = 0.3063): 0.689 ± 0.018 mPa·s
- viscosity (298.15 K, 101.33 kPa, x2 = 0.4005): 0.656 ± 0.018 mPa·s
- viscosity (298.15 K, 101.33 kPa, x2 = 0.5036): 0.631 ± 0.017 mPa·s
- viscosity (298.15 K, 101.33 kPa, x2 = 0.5982): 0.608 ± 0.017 mPa·s
- viscosity (298.15 K, 101.33 kPa, x2 = 0.7031): 0.585 ± 0.016 mPa·s
- viscosity (298.15 K, 101.33 kPa, x2 = 0.833): 0.557 ± 0.016 mPa·s
- viscosity (298.15 K, 101.33 kPa, x2 = 0.8997): 0.543 ± 0.016 mPa·s
- viscosity (303.15 K, 101.33 kPa, x2 = 0.0994): 0.719 ± 0.019 mPa·s
- viscosity (303.15 K, 101.33 kPa, x2 = 0.201): 0.68 ± 0.018 mPa·s
- viscosity (303.15 K, 101.33 kPa, x2 = 0.3063): 0.646 ± 0.017 mPa·s
- viscosity (303.15 K, 101.33 kPa, x2 = 0.4005): 0.614 ± 0.017 mPa·s
- viscosity (303.15 K, 101.33 kPa, x2 = 0.5036): 0.588 ± 0.016 mPa·s
- viscosity (303.15 K, 101.33 kPa, x2 = 0.5982): 0.572 ± 0.016 mPa·s
- viscosity (303.15 K, 101.33 kPa, x2 = 0.7031): 0.548 ± 0.016 mPa·s
- viscosity (303.15 K, 101.33 kPa, x2 = 0.833): 0.52 ± 0.015 mPa·s
- viscosity (303.15 K, 101.33 kPa, x2 = 0.8997): 0.511 ± 0.015 mPa·s
- viscosity (308.15 K, 101.33 kPa, x2 = 0.0994): 0.676 ± 0.018 mPa·s
- viscosity (308.15 K, 101.33 kPa, x2 = 0.201): 0.633 ± 0.017 mPa·s
- viscosity (308.15 K, 101.33 kPa, x2 = 0.3063): 0.604 ± 0.016 mPa·s
- viscosity (308.15 K, 101.33 kPa, x2 = 0.4005): 0.575 ± 0.016 mPa·s
- viscosity (308.15 K, 101.33 kPa, x2 = 0.5036): 0.551 ± 0.015 mPa·s
- viscosity (308.15 K, 101.33 kPa, x2 = 0.5982): 0.536 ± 0.015 mPa·s
- viscosity (308.15 K, 101.33 kPa, x2 = 0.7031): 0.516 ± 0.015 mPa·s
- viscosity (308.15 K, 101.33 kPa, x2 = 0.833): 0.493 ± 0.014 mPa·s
- viscosity (308.15 K, 101.33 kPa, x2 = 0.8997): 0.481 ± 0.014 mPa·s

SMILES: ClC(Cl)(Cl)Cl + Nc1ccccc1
- viscosity (298.15 K, 101.32 kPa, x2 = 0.1018): 0.991 ± 0.0008 mPa·s
- viscosity (298.15 K, 101.32 kPa, x2 = 0.2047): 1.111 ± 0.0008 mPa·s
- viscosity (298.15 K, 101.32 kPa, x2 = 0.325): 1.297 ± 0.0009 mPa·s
- viscosity (298.15 K, 101.32 kPa, x2 = 0.3901): 1.418 ± 0.0009 mPa·s
- viscosity (298.15 K, 101.32 kPa, x2 = 0.4954): 1.655 ± 0.001 mPa·s
- viscosity (298.15 K, 101.32 kPa, x2 = 0.5976): 1.914 ± 0.0011 mPa·s
- viscosity (298.15 K, 101.32 kPa, x2 = 0.7051): 2.263 ± 0.0011 mPa·s
- viscosity (298.15 K, 101.32 kPa, x2 = 0.8076): 2.672 ± 0.0012 mPa·s
- viscosity (298.15 K, 101.32 kPa, x2 = 0.9265): 3.3 ± 0.0013 mPa·s
